Results on 15 molecules are retold here after patent US11440886B2, “Anti-inflammatory compound, and preparation and use thereof” (E-Nitiate Biopharmaceuticals (Hangzhou) Co., Ltd., priority 2018, dated 2022).

Each structure is given as a SMILES string.

Test [1] has as its system human peripheral blood mononuclear cells (PBMCs). The experiment in a line: Inhibition of LPS-induced TNFα release by peripheral blood mononuclear cells (PBMCs). In kind it is cell-based. Conditions: PBMC, TNFα level in supernatant, LPS 1 ug/mL, 24 hours, Luminex. As for the experimental part:
Inhibition of the compounds on proinflammatory cytokine release by peripheral blood mononuclear cells (PBMCs)
The effect of the compounds on the release characteristics of TNFa cytokines in frozen human peripheral blood mononuclear cells (PBMCs) was determined.
Fresh human PBMCs were isolated, and suspended in a fresh medium. The PBMC medium (CM) is RPMI1640 containing 10% FBS, 1% PBS, and 2 mM L-glutamine. The cells were plated at a density of 2*10^5 cells/well (100 ul). The test compound was dissolved in DMSO to form a 10 mM sample (DMSO, 100%). The compound was diluted with PBMC medium to the required concentrations. The sample (50 uL) was incubated for 1 hr with cells at 37° C., 5% CO2, after which the inducer (LPS, 1 ug/mL) was added. The inducer+vehicle (LPS+0.05% DMSO) was used as a control in this experiment. The vehicle without inducer was used as a negative control. Crisaborole was used as a positive control. After 24 hours of incubation, the supernatant was extracted and stored at −80° C. The supernatant was thawed and the TNFα level in the supernatant was measured by Luminex4-plex assay.

Test [2] addresses human recombinant PDE4B1 enzyme (Homo sapiens (Human), UniProt Q07343). Briefly: Inhibition of PDE4B1 activity by cAMP HTRF assay. In kind it is biochemical. Particulars: human recombinant PDE4B1, cAMP 40 nM, pH 7.4. The gist of the method: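 Recombinant human PDE4B1 (4.8 U) was preincubated 10 min with compound in HBSS/HEPES/MgCl2/BSA, pH 7.4, then 40 nM cAMP was added for 60 min at RT. Remaining cAMP was read by HTRF after IBMX stop; IC50 from eight concentrations in duplicate, repeated twice.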

A further test has as its system PDE4. Conditions: background statement; cited from earlier work.
For a further test, the system named is cytokine release. Particulars: background statement; cited from earlier work.
Another test has as its system eczema. Conditions: patients with eczema; cited from earlier work.

Chain of human recombinant PDE4B1 enzyme (Q07343 whole entry): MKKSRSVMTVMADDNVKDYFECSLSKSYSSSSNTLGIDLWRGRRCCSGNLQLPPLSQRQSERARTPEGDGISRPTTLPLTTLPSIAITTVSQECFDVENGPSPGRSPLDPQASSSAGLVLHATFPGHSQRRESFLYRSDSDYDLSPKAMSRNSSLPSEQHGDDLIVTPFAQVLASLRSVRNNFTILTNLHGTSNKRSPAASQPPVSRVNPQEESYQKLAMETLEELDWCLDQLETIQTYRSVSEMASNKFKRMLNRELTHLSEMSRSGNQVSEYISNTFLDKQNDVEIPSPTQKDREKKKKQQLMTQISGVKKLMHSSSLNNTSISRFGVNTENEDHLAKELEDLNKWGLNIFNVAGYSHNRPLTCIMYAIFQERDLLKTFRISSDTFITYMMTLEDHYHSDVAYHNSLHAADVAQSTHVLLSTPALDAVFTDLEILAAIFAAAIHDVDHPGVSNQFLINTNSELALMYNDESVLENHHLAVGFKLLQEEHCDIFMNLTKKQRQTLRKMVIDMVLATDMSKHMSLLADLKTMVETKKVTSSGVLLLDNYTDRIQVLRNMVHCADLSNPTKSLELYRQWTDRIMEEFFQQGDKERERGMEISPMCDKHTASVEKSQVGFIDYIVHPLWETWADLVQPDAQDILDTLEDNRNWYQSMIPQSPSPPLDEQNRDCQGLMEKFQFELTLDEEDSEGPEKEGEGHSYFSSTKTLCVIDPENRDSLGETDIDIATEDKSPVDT

Usually EC50 stands for the concentration giving half of the maximal effect. Low values mean an effect from little substance, high ones a need for much substance. In general, IC50 refers to the midpoint of a concentration-inhibition curve. In turn, `COc1ccc(/C=C/n2c(C)cc(=O)cc2C)cc1OCCSC` [Example 77, (E)-1-(3-methylthioethoxy-4-methoxystyryl)-2,6-dimethylpyridin-4(1H)-one] yielded an EC50 in test [1] of 11 nM. Further, the IC50 in test [2] turned out to be 26.4 nM.

Molecule `COc1ccc(/C=C/n2c(C)cc(=O)cc2C)cc1OC1CCSC1` (stereo not drawn) [Example 80, (E)-1-((3-(tetrahydrothiophen-3-yl)oxy-4-methoxy)-styryl)-2,6-dimethylpyridin-4(1H)-one] displayed an EC50 in test [1] of less than 5 nM. For the same molecule, the IC50 in test [2] worked out at 7 nM.

In the case of `Cc1cc(=O)cc(C)n1/C=C/c1ccc(OC(F)F)c(OCC2CC2)c1` [Example 88, (E)-1-(3-(cyclopropylmethoxy)-4-(difluoromethoxy)styryl)-2,6-dimethylpyridin-4(1H)-one], in test [1], the 50% effective concentration (EC50) is less than 5 nM. In addition, the half-inhibitory concentration (IC50) in test [2] worked out at 2.8 nM.

In the case of `COc1ccc(/C=C/n2ccc(=O)cc2C)cc1OCC1CC1` [Example 51, (E)-1-(3-cyclopropylmethoxy-4-methoxystyryl)-2-methylpyridin-4(1H)-one], the IC50 in test [2] stood at 57 nM.

`COc1ccc(C(=O)Cn2c(C)cc(=O)cc2C)cc1OC` [Example 11, 1-(2-(3,4-dimethoxyphenyl)-2-oxoethyl)-2,6-dimethylpyridin-4(1H)-one]: the half-inhibitory concentration (IC50) in test [2] amounted to 44 nM.

Consider `COc1ccc(/C=C(\C(=O)N(C)C)n2c(C)cc(=O)cc2C)cc1OCC1CC1` [Example 118], for which, in test [2], the IC50 is 320 nM.

For the molecule `COc1ccc(C(=O)Cn2ccc(=O)cc2Cl)cc1OCC1CC1` [Example 47, 1-(2-(3-cyclopropylmethoxy-4-methoxyphenyl)-2-oxoethyl)-2-chloropyridin-4(1H)-one], the IC50 in test [2] turned out to be 7.1 nM.

In the case of `COc1ccc(C(=O)Cn2c(C)cc(=O)cc2C)cc1OCC1CC1` [Example 20, 1-(2-(3-cyclopropylmethoxy-4-methoxyphenyl)-2-oxo)ethyl-2,6-dimethylpyridin-4(1H)-one], the concentration for half-maximal inhibition (IC50) in test [2] stood at 13 nM.

On to `CCOC(=O)/C(=C\n1c(C)cc(=O)cc1C)c1ccc(OC)c(OCC2CC2)c1` [Example 113, (Z)-ethyl 2-(3-cyclopropylmethoxy-4-methoxyphenyl)-3-(2,6-dimethyl-4-carbonylpyridin-1(4H)-yl)-acrylate], for which, in test [2], the 50% inhibitory concentration (IC50) is 170 nM.

As for `COc1ccc(/C(=C/n2c(C)cc(=O)cc2C)C(=O)N(C)C)cc1OCC1CC1` [Example 109, (Z)-2-(3-cyclopropylmethoxy-4-methoxyphenyl)-3-(2,6-dimethyl-4-carbonylpyridin-1(4H)-yl)-N,N-dimethylacrylamide], the IC50 in test [2] is 180 nM.

Regarding `Cc1cc(=O)cc(C)n1/C=C/c1ccc(OC(F)F)c(O[C@H]2CC[S+]([O-])C2)c1` (single isomer, unassigned) [Example 98-1], the IC50 in test [2] turned out to be 97 nM.

As for `COc1ccc(C(=O)Cn2c(C)cc(=O)cc2C)cc1OC1CC1` [Example 19, 1-(2-(3-cyclopropyloxy-4-methoxyphenyl)-2-oxoethyl)-2,6-dimethylpyridin-4(1H)-one], the IC50 in test [2] was 4.6 nM.

`C=CCOc1cc(C(=O)Cn2c(C)cc(=O)cc2C)ccc1OC` [Example 26, 1-(2-(3-allyloxy-4-methoxyphenyl)-2-oxoethyl)-2,6-dimethylpyridin-4(1H)-one]: in test [2], the IC50 came to 39 nM.

Consider `N#Cc1ccc(Oc2ccc3c(c2)COB3O)cc1` [Crisaborole], for which the enzyme inhibition activity result in the test with PDE4 is listed as “about 100 nM”. Besides, in the test on cytokine release, the “cell activity inhibiting cytokine release” value is recorded as “about 500 nM”. Moreover, in the test on eczema, the “clinical effect on eczema higher than that of the blank control” value is reported as “about 10%” and the “proportion of patients who cannot benefit” value is on record as “about 50%”.

Take `COc1ccc(/C=C/n2c(C)cc(=O)cc2C)cc1OC1COC1` [Example 68, (E)-1-((3-(oxacyclobutan-3-yl-oxy)-4-methoxy)-styryl)-2,6-dimethylpyridin-4(1H)-one]: the half-inhibitory concentration (IC50) in test [2] amounted to 27 nM.
